The values below come from patent US10975016B2, “Solvent compounds for use as glycol ether replacements” (TBF ENVIRONMENTAL TECHNOLOGY INC., priority 2017, dated 2021).

SMILES strings stand for the structures.

The nature of data set [1]: XBC vs Dipropylene Glycol Methyl Ether (DPM) in acrylic modified epoxy ester based paint: physical and coating properties. The settings on record: for Specific Gravity: acrylic modified epoxy ester (Epotuf 38-698) based paint; for VOC (Without Water) / Viscosity / Volume Solid % / Weight Solid %: acrylic modified epoxy ester based paint. The procedure:
The properties of XBC4, in comparison to dipropylene glycol methyl ether (DPM), in an acrylic-modified epoxy ester-based paint were determined to be as follows: […]

A short description of data set [2]: VOC (calculated) of water-based paint formulas. Type of data set: physicochemical. Conditions: water-based paints, substituted for propylene glycol. The procedure:
Bis(2-ButoxyEthyl Carbonate) was tested in a number of water-based flat paints, as follows. Water was added to a container and the additives were added. The container was placed under a high speed disperser and mixed under slow speed. Natrosol™ hydroxyethylcellulose was added slowly and allowed to mix for 10 minutes increasing speed as needed. The pigments were then added, slowly increasing speed and water as needed. After the pigments were added, the speed was increased to about 2800 rpms. After 10 to 15 minutes the speed was reduced to about 1000 rpms. The latex was added slowly into the vortex. The rest of the water and other additives (depending on the formulation) were then added and allowed to mix for 5 minutes.
In some tests, bis(2-ButoxyEthyl Carbonate) was substituted for propylene glycol to evaluate its effectiveness in replacing propylene glycol to create a lower VOC and lower toxicity material.

The nature of data set [3]: Physical/chemical properties of XBC4 (GlykoSol).

`COC(C)COC(C)CO` (stereo not drawn) [DPM, dipropylene glycol methyl ether, reference compound]: in data set [1], the “Specific Gravity” value turned out to be 1.23 g/cm3, the “VOC (Without Water)” value amounted to 110 g/L, the Viscosity came out at 90 KU and the “Volume Solid %” value is listed as 35.5%. In addition, the “Weight Solid %” value in data set [1] was found to be 46.9%.

On to `CCCCOCCOC(=O)OCCOCCCC` [XBC4, bis(2-ButoxyEthyl Carbonate)], for which the “VOC of paint after replacement of propylene glycol” value in data set [2] is “far lower or zero (0) VOC materials”. In addition, in data set [1], the “Specific Gravity” value came out at 1.23 g/cm3, the “VOC (Without Water)” value came out at 34 g/L, the Viscosity is 90 KU and the “Volume Solid %” value came out at 35.5%. The “Weight Solid %” value in data set [1] stood at 46.9%. In data set [3], the “Auto Ignition Temp” value is on record as 305 (581° F.) ° C, the “Boiling Point” value is listed as 297 (566.6° F.) ° C, the “Butyl Cellosolve Solubility” value was “Soluble” and the Clarity result is on record as “Clear”. In data set [3], the “Colour (Alpha, max)” value is listed as 10 (Clear); the Flashpoint is reported as 146.1 (295° F.) ° C; the Odor entry was “No Odor”; the “Partial Coefficient (Range)” value is reported as 1.9-3.0. Also, in data set [3], the “Volatility (%)” value is 100% and the “Water Solubility” value is on record as “Not Soluble”. Further, the “Specific Gravity” value in data set [3] (@15.5° C.) is on record as 0.985. For the same molecule, the Density in data set [3] (@ 20° C.) was 0.980 (8.22 lbs/gal) g/mL. Moreover, in data set [3] (@ 25° C.), the “Solubility in H2O” value is given as “Partially Soluble”, the “Vapour Pressure” value is on record as 0.008 mm Hg and the Viscosity is on record as 0.60 cP. Further, the VOC in data set [3] (ASTM 313-91) is recorded as 0 g/L. In addition, in data set [3] (Air = 1), the “Vapour Density (Air = 1)” value amounted to 0.95. Also, in data set [3] (Range 115-240°), the “TGA Weight Loss” value is reported as 99.47%. In data set [3] (n-Butyl Acetate = 1), the “Evaporation Rate (n-Butyl Acetate = 1)” value is 0.01.
